Source: patent US11420984B2, “Arginase inhibitors and methods of use thereof” (AstraZeneca AB, priority 2018, dated 2022)
Like-named read-outs stand apart in the source and are kept apart here. Marks after values point to notes of the source that are not given here.

Key:
Human Arginase 1 = Human Arginase 1 (Homo sapiens (Human), UniProt P05089); experiment: Human Arginase 1 enzyme inhibition (thioarginine/DTNB absorbance assay); format: biochemical; conditions: recombinant enzyme 5 nM, 0.5 mM thioarginine premix, 60 min
Protocol: (§1) The thiol group was detected with Ellman's reagent, 5,5′-dithiobis(2-nitrobenzoic acid) (DTNB). DTNB reacts with the thiol to give the mixed disulfide and 2-nitro-5-thiobenzoic acid (TNB) which is quantified by the absorbance of the anion (TNB^2−) at 412 nm.
(§2) The assays were run in clear 384 well plates (Greiner cat no: 781101). […] Two pre-mixes were prepared from reagents thawed immediately before addition to assay plates. Pre-mix one comprised human Arginase 1 or human Arginase 2, at a final concentration of 5 nM and 0.5 mM DTNB in assay buffer, 45 mM HEPES pH7.5, brij 35, 0.045% (w/v) and 100 μM MnCl2. Pre-mix two comprised freshly thawed 0.5 mM thioarginine in assay buffer.
(§3) Assay plates were centrifuged prior to reading absorbance at 412 nm in a Pherastar multi-mode plate reader to collect data at time point 0 (T0). The plates were incubated at room temperature for 60 min prior to reading again to collect data at time point 1 (T1). Data is derived by subtracting the A412 signal measured at T0 (time point 0) from that measured at T1 (time point 1). The data was transformed to % effect using the equation: Compound % effect=100*[(X−min)/(max−min)], where X represents the normalized value for the compound based on the Min (vehicle) and Max (reference compound) inhibition control.

Human Arginase 2 = Human Arginase 2 (Homo sapiens (Human), UniProt P78540); experiment: Human Arginase 2 enzyme inhibition (thioarginine/DTNB absorbance assay); format: biochemical; conditions: recombinant enzyme 5 nM, 0.5 mM thioarginine premix, 60 min
Protocol: as §1, §2, §3

[1] = Bioavailability / pharmacokinetic study in male rats (IV and PO); format: in vivo, rat; conditions: plasma; for Vd: read-out: Vdss
Protocol: Example 8 was formulated in 0.9% w/v saline pH 4 (adjusted with 1M HCl) for IV dosing. The formulation was dosed at 2 mg/kg by femoral catheter to two male rats each (170-250 g). Jugular vein catheter serial blood samples were taken at 0.033, 0.083, 0.167, 0.5, 1, 2, 4, 8, and 24 hrs post-dose. For PO dosing, Example 8 was formulated in deionized water pH 4 (adjusted with 1M HCl) and dosed at 5 mg/kg by oral gavage to two male rats each (170-250 g). Serial blood samples were taken by jugular vein catheter at 0.25, 0.5, 1, 1.5, 2, 3, 4, 8, and 24 hrs post dose. Plasma samples were generated from blood using low speed centrifugation. […] The samples and standards were extracted by precipitation with two volumes of acetonitrile followed by centrifugation. […] Where appropriate, measured and not nominal doses were used to calculate bioavalability.

[2] = Interconversion of Compound B to Compound A observed by NMR; format: physicochemical
Text: Compound B (Example 19) was obtained by the intramolecular cyclization of Example 9 (Compound A) via an interconversion process. Furthermore, interconversions between Compound A (Example 9) and Compound B were observed under various conditions. For example, Compound B was converted to Compound A in the presence of water and such conversion was proportional to the concentration of water in the solvent. […] In d6-DMSO, compound B predominates, while there is a proportional increase in compound A with increase in D2O concentration. The proportion of compound A relative to compound B in 100% D2O reaches approximately 90%. Furthermore, Compound B was converted to Compound A under acidic condition.

[3] = Bioavailability / pharmacokinetic study in male rats (IV and PO); format: in vivo; conditions: Example 7 when dosed as payload, male rat
[4] = pro-drug itself, observed when dosed as pro-drug, male rat, IV 2 mg/kg
[5] = pro-drug itself, observed when dosed as pro-drug, male rat, PO 5 mg/kg

Human Arginase 2, sequence (P78540 23-354): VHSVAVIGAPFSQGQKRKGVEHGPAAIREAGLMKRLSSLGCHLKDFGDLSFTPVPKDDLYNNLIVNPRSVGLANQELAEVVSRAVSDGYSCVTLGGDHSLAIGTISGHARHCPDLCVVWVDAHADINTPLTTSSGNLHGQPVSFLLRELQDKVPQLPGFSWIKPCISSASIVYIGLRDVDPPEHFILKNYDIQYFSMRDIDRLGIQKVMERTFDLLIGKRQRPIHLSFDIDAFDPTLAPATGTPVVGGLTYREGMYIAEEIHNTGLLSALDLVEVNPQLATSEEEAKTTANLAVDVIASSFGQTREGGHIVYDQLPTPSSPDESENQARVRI
Human Arginase 1, sequence (P05089 whole entry): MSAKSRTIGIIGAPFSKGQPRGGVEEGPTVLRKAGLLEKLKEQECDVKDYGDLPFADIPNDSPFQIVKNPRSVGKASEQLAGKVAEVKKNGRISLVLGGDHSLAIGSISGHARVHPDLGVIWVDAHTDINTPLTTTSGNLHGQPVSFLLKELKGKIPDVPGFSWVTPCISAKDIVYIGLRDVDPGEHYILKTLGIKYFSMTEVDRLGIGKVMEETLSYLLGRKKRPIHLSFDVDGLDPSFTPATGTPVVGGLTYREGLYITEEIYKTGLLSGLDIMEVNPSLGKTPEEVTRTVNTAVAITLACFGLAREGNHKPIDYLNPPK

Row | IC50 (Human Arginase 1) | IC50 (Human Arginase 2) | clearance [1, 4] | Vd [1, 4] | AUC [1, 5] | Cmax [1, 5] | Tmax [1, 5] | bioavailability ([1]; pro-drug itself, observed when dosed as pro-drug, male rat, PO 5 mg/kg vs IV 2 mg/kg) | conversion to compound A under acidic condition ([2]; compound B in 0.1 M DCl in D2O) | proportion of compound A relative to compound B ([2]; compound B in 100% D2O) | clearance ([1]; male, rat, iv) | Vd ([1]; male, rat, iv) | Cl (mL/min/kg) [3] | Vdss (L/kg) [3] | SMILES
1 | 220 nM | 280 nM | 36.8 mL/min/kg | 0.2 L/kg | 0.21 µM·h | 330 nM | 15 min | 2.5% | almost complete conversion to compound A | approximately 90% | – | – | – | – | CC(C)[C@H](N)C(=O)N[C@H]1CN[C@]2(CCCCB(O)OC2=O)C1 [Example 19, (S)-2-amino-N-((3R,5R)-8-hydroxy-6-oxo-7-oxa-1-aza-8-boraspiro[4.7]dodecan-3-v1)-3-methylbutanamide]
2 | – | – | – | – | – | – | – | – | – | – | 8.9 mL/min/kg | 0.26 L/kg | 8.90 * mL/min/kg | 0.26 * L/kg | N[C@H]1CN[C@@](CCCCB(O)O)(C(=O)O)C1 [Example 7, (2R,4R)-4-amino-2-(4-boronobutyl)pyrrolidine-2-carboxylic acid]
